Data on twelve compounds can be found in patent publication EP4768484A1, “HETEROCYCLIC FUSED RING COMPOUND, AND COMPOSITION AND USE THEREOF” (Shenzhen TargetRx, Inc., priority 2023, dated 2025).

What all share (type): cell-based
One assay relates to K562 cells. In words: Cell growth inhibitory activity assay (CellTiter-Glo), K562 cells. The note with it: Homo sapiens, 72 h, CTG cell viability. Put shortly:
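K562 cells in logarithmic growth were counted, diluted and plated in 96-well plates, with medium-only blanks and a separate T0 plate read by CTG the following day. After overnight incubation, graded compound concentrations were added for 72 h, with 0.5% DMSO wells as growth controls. Luminescence was read on a Biotek cytation3.0, and IC50 came from nonlinear fitting in GraphPad Prism 7.0.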

For another assay, the target named is T1, Ba/F3 BCR-ABL1 T315M (Homo sapiens, UniProt P00519+P11274, T315M).
T1 construct: BCR (N-terminal fusion partner of the oncoprotein); expressed in transfected cells; host or cells: Ba/F3 (lentiviral transduction, monoclonal line)
Nature of the assay: Cell growth inhibitory activity assay (CellTiter-Glo), Ba/F3 BCR-ABL1 T315M cells. The note with it: 72 h, CTG cell viability. The protocol: In this assay, the Celltiter-Glo (CTG) kit provided by Promega was used, and it is a homogeneous cell viability assay method. The cell viability of cultured cells was measured by quantifying ATP. K562 cells were purchased from Nanjing Kebai, product number CBP60529; Ba/F3 parental cells were purchased from RIKEN BRC, product number RCB0805; other cells containing BCR-ABL1 WT, BCR-ABL1 T315I, BCR-ABL1 T315M, BCR-ABL1 Y253H/E255K, BCR-ABL1 E255V/T3151, BCR-ABL1 A424T, BCR-ABL1 A337V, BCR-ABL1 P465S, BCR-ABL1 V468F, and BCR-ABL1 I502L were all monoclonal engineered cell lines obtained by transducting Ba/F3 parental cells with the lentivirus plasmids containing WT or corresponding mutated BCR-ABL1.
The steps of cell viability assay are as follows: • a) Cells in logarithmic growth phase were collected. Cell suspension was prepared and the cells were counted. Concentration of the cells was calculated. • b) The cell suspension was diluted to the required concentration and then added to the middle wells of a 96-well plate, and PBS was added to the edge wells. The wells with no cells and only culture medium were used as blank controls. • c) In addition to the cell plate used for compound analysis, another 96-well plate was prepared as a T0 plate, and 3-6 blank wells and 3-6 cell wells were added. The next day, CTG was used to test the cell viability as the T0 viability value of the cells. • d) The cell plate was incubated at 37 °C in a 5% CO2 incubator overnight. • e) The next day, each concentration of a compound subjected to a gradient dilution was added, and the cell plate was incubated at 37 °C in a 5% CO2 incubator for 72 h. The wells with no compound and only 0.5% DMSO were used as positive controls for cell growth. • f) CTG reagent (CellTiter-Glo kit) was added according to the manufacturer's instructions to test the cell viability value. • g) The plate was read using Biotek cytation3.0 microplate reader and the data were exported. • h) IC50 was calculated using GraphPad Prism 7.0 software.
The IC50 (half-maximal inhibitory concentration) of the compound was obtained using the following nonlinear fitting formula: Y = Bottom + (Top−Bottom)/(1+10^(∧)((LogIC50−X)*HillSlope)) [formula] • X: Log value of the compound concentration • Y: Inhibition rate (% inhibition) • Top: Maximum response • Bottom: Baseline response • HillSlope: Slope of the curve
The formula for calculating cell inhibition rate (inhibition rate %) was: [formula]

The subject of a further assay is Ba/F3 parental cells. In words: Cell growth inhibitory activity assay (CellTiter-Glo), Ba/F3 parental cells. The note with it: Mus musculus, BaF3, 72 h, CTG cell viability, read-out: IC50 Ba/F3 BCR-ABL1 Parental. In a few lines: (§1)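 Compound dilutions applied for 72 h (37 °C, 5% CO2) to overnight-plated Ba/F3 cells, parental or engineered to express WT/mutant BCR-ABL1. ATP-based CellTiter-Glo luminescence read, referenced to day-0 viability and 0.5% DMSO wells; IC50 fitted by four-parameter logistic curve.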
A general note: Cellular ATP, detected with luciferase, serves as a proxy for viable cell number.

The next assay concerns the target T2, Ba/F3 BCR-ABL1 WT (Homo sapiens, UniProt P00519+P11274).
T2 construct: BCR (N-terminal fusion partner of the oncoprotein); expressed in transfected cells; host or cells: Ba/F3 (lentiviral transduction, monoclonal line)
Nature of the assay: Cell growth inhibitory activity assay (CellTiter-Glo), Ba/F3 BCR-ABL1 WT cells. The note with it: 72 h, CTG cell viability. Put shortly: as §1

Another assay addresses T3, Ba/F3 BCR-ABL1 T315I (Homo sapiens, UniProt P00519+P11274, T315I).
T3 construct: BCR (N-terminal fusion partner of the oncoprotein); expressed in transfected cells; host or cells: Ba/F3 (lentiviral transduction, monoclonal line)
In words: Cell growth inhibitory activity assay (CellTiter-Glo), Ba/F3 BCR-ABL1 T315I cells. The note with it: 72 h, CTG cell viability. Put shortly: as §1

In the case of `C[C@@H]1CC[S+]([O-])c2nc3cc(C(=O)Nc4ccc(OC(F)(F)Cl)cc4)cc(-c4cnc5c(c4)C(=O)N(C)C5)c3n21` (stereo partly drawn) [T-27, (4R)-N-(4-(chlorodifluoromethoxy)phenyl)-4-methyl-6-(6-methyl-5-oxo-6,7-dihydro-5H-pyrrolo[3,4-b]pyridin-3-yl)-3,4-dihydro-2H-benzo[4,5]imidazo[2,1-b][1,3]thiazine-8-carboxamide 1-oxide], the IC50 with K562 cells was not above 5 nM; against Ba/F3 BCR-ABL1 T315M, more than 1000 nM; with Ba/F3 parental cells, more than 1000 nM; against Ba/F3 BCR-ABL1 WT, 5 to 50 nM; on Ba/F3 BCR-ABL1 T315I it was 50 to 1000 nM.
In the case of `C[C@@H]1CCS(=O)(=O)c2nc3cc(C(=O)Nc4ccc(OC(F)(F)Cl)cc4)cc(-c4cnc5c(c4)C(=O)N(C)C5)c3n21` [T-28, (R)-N-(4-(chlorodifluoromethoxy)phenyl)-4-methyl-6-(6-methyl-5-oxo-6,7-dihydro-5H-pyrrolo[3,4-b]pyridin-3-yl)-3,4-dihydro-2H-benzo[4,5]imidazo[2,1-b][1,3]thiazine-8-carboxamide 1,1-dioxide], the IC50 was not above 5 nM with K562 cells; 50 to 1000 nM at Ba/F3 BCR-ABL1 T315M; more than 1000 nM with Ba/F3 parental cells; 5 to 50 nM against Ba/F3 BCR-ABL1 WT; 5 to 50 nM against Ba/F3 BCR-ABL1 T315I.
As for `C[C@@H]1COCc2nc3cc(C(=O)Nc4ccc(OC(F)(F)Cl)cc4)cc(-c4cnc5c(c4)C(=O)NC5)c3n21` [T-30, (R)-N-(4-(chlorodifluoromethoxy)phenyl)-4-methyl-6-(5-oxo-6,7-dihydro-5H-pyrrolo[3,4-b]pyridin-3-yl)-3,4-dihydro-1H-benzo[4,5]imidazo[2,1-c][1,4]oxazine-8-carboxamide], the IC50 in the assay with K562 cells was not above 5 nM; against Ba/F3 BCR-ABL1 T315M it was 5 to 50 nM; with Ba/F3 parental cells it was more than 1000 nM; on Ba/F3 BCR-ABL1 WT it was not above 5 nM; on Ba/F3 BCR-ABL1 T315I it was 50 to 1000 nM.
For the compound `C[C@@H]1CCC(O)c2nc3cc(C(=O)Nc4ccc(OC(F)(F)Cl)cc4)cc(-c4cnc5c(c4)C(=O)N(C4CC4)C5)c3n21` (stereo partly drawn) [T-32, (1R)-N-(4-(chlorodifluoromethoxy)phenyl)-9-(6-cyclopropyl-5-oxo-6,7-dihydro-5H-pyrrolo[3,4-b]pyridin-3-yl)-4-hydroxy-1-methyl-1,2,3,4-tetrahydrobenzo[4,5]imidazo[1,2-a]pyridine-7-carboxamide], the IC50 in the assay with K562 cells was not above 5 nM; against Ba/F3 BCR-ABL1 T315M, 50 to 1000 nM; in the assay with Ba/F3 parental cells, more than 1000 nM; against Ba/F3 BCR-ABL1 WT, not above 5 nM; against Ba/F3 BCR-ABL1 T315I, 50 to 1000 nM.
With `C[C@@H]1CCC(O)c2nc3cc(C(=O)Nc4ccc(OC(F)(F)Cl)cc4)cc(-c4cnc5c(c4)C(=O)NC5)c3n21` (stereo partly drawn) [T-33, (1R)-N-(4-(chlorodifluoromethoxy)phenyl)-4-hydroxy-1-methyl-9-(5-oxo-6,7-dihydro-5H-pyrrolo[3,4-b]pyridin-3-yl)-1,2,3,4-tetrahydrobenzo[4,5]imidazo[1,2-a]pyridine-7-carboxamide], the IC50 in the assay with K562 cells was not above 5 nM; on Ba/F3 BCR-ABL1 T315M it was 50 to 1000 nM; in the assay with Ba/F3 parental cells, more than 1000 nM; on Ba/F3 BCR-ABL1 WT, 5 to 50 nM; against Ba/F3 BCR-ABL1 T315I, 50 to 1000 nM.
For the compound `C[C@@H]1CCC(F)c2nc3cc(C(=O)Nc4ccc(OC(F)(F)Cl)cc4)cc(-c4cnc5c(c4)C(=O)N(C4CC4)C5)c3n21` (stereo partly drawn) [T-35], the IC50 in the assay on K562 cells is not above 5 nM; at Ba/F3 BCR-ABL1 T315M, 5 to 50 nM; with Ba/F3 parental cells, more than 1000 nM; against Ba/F3 BCR-ABL1 WT it was not above 5 nM; against Ba/F3 BCR-ABL1 T315I, 5 to 50 nM.
Take `C[C@@H]1CN(C)CCc2nc3cc(C(=O)Nc4ccc(OC(F)(F)Cl)cc4)cc(-c4cnc5c(c4)C(=O)N(C4CC4)C5)c3n21` [T-37, (R)-N-(4-(chlorodifluoromethoxy)phenyl)-10-(6-cyclopropyl-5-oxo-6,7-dihydro-5H-pyrrolo[3,4-b]pyridin-3-yl)-1,3-dimethyl-2,3,4,5-tetrahydro-1H-benzo[4,5]imidazo[1,2-d][1,4]diazepine-8-carboxamide]: the IC50 is 50 to 1000 nM in the assay on K562 cells; more than 1000 nM on Ba/F3 BCR-ABL1 T315M; more than 1000 nM in the assay on Ba/F3 parental cells; more than 1000 nM on Ba/F3 BCR-ABL1 WT; more than 1000 nM on Ba/F3 BCR-ABL1 T315I.
For the compound `C[C@@H]1CCOCc2nc3cc(C(=O)Nc4ccc(OC(F)(F)Cl)cc4)cc(-c4cnc5c(c4)C(=O)N(C)C5)c3n21` [T-39, (R)-N-(4-(chlorodifluoromethoxy)phenyl)-5-methyl-7-(6-methyl-5-oxo-6,7-dihydro-5H-pyrrolo[3,4-b]pyridin-3-yl)-4,5-dihydro-1H,3H-benzo[4,5]imidazo[2,1-c][1,4]oxazepine-9-carboxamide], the IC50 is not above 5 nM in the assay with K562 cells; more than 1000 nM against Ba/F3 BCR-ABL1 T315M; more than 1000 nM in the assay on Ba/F3 parental cells; not above 5 nM against Ba/F3 BCR-ABL1 WT; 50 to 1000 nM against Ba/F3 BCR-ABL1 T315I.
In the case of `CC(=O)n1cc2c(n1)-c1cc(-c3cc(C(=O)Nc4ccc(OC(F)(F)Cl)cc4)cc4nc5n(c34)[C@H](C)COC5)cnc1C2` [T-43, (R)-6-(2-acetyl-2,4-dihydropyrazolo[3',4':3,4]cyclopenta[1,2-b]pyridin-7-yl)-N-(4-(chlorodifluoromethoxy)phenyl)-4-methyl-3,4-dihydro-1H-benzo[4,5]imidazo[2,1-c][1,4]oxazine-8-carboxamide], the IC50 was not above 5 nM with K562 cells; 50 to 1000 nM against Ba/F3 BCR-ABL1 T315M; more than 1000 nM in the assay on Ba/F3 parental cells; not above 5 nM at Ba/F3 BCR-ABL1 WT; not above 5 nM against Ba/F3 BCR-ABL1 T315I.
As to `Cc1ccnc(-n2cc3c(n2)-c2cc(-c4cc(C(=O)Nc5ccc(OC(F)(F)Cl)cc5)cc5nc6n(c45)[C@H](C)COC6)cnc2C3)n1` [T-73, (R)-N-(4-(chlorodifluoromethoxy)phenyl)-4-methyl-6-(2-(4-methylpyrimidin-2-yl)-2,4-dihydropyrazolo[3',4':3,4]cyclopenta[1,2-b]pyridin-7-yl)-3,4-dihydro-1H-benzo[4,5]imidazo[2,1-c][1,4]oxazine-8-carboxamide], the IC50 with K562 cells was not above 5 nM; on Ba/F3 BCR-ABL1 T315M, not above 5 nM; in the assay with Ba/F3 parental cells it was more than 1000 nM; against Ba/F3 BCR-ABL1 WT, not above 5 nM; against Ba/F3 BCR-ABL1 T315I, not above 5 nM.
Consider `C[C@@H]1CC[S+]([O-])c2nc3cc(C(=O)Nc4ccc(OC(F)(F)Cl)cc4)cc(-c4cnccn4)c3n21` (stereo partly drawn) [T-117, (4R)-N-(4-(chlorodifluoromethoxy)phenyl)-4-methyl-6-(pyrazin-2-yl)-3,4-dihydro-2H-benzo[4,5]imidazo[2,1-b][1,3]thiazine-8-carboxamide 1-oxide], for which the IC50 in the assay on K562 cells is not above 5 nM; against Ba/F3 BCR-ABL1 T315M, more than 1000 nM; in the assay with Ba/F3 parental cells it was more than 1000 nM; on Ba/F3 BCR-ABL1 WT it was not above 5 nM; on Ba/F3 BCR-ABL1 T315I, 5 to 50 nM.
As for `C[C@@H]1CCS(=O)(=O)c2nc3cc(C(=O)Nc4ccc(OC(F)(F)Cl)cc4)cc(-c4cnccn4)c3n21` [T-118, (R)-N-(4-(chlorodifluoromethoxy)phenyl)-4-methyl-6-(pyrazin-2-yl)-3,4-dihydro-2H-benzo[4,5]imidazo[2,1-b][1,3]thiazine-8-carboxamide 1,1-dioxide], the IC50 in the assay with K562 cells is not above 5 nM; against Ba/F3 BCR-ABL1 T315M it was 50 to 1000 nM; in the assay with Ba/F3 parental cells it was more than 1000 nM; against Ba/F3 BCR-ABL1 WT it was not above 5 nM; at Ba/F3 BCR-ABL1 T315I, 5 to 50 nM.
